The values that follow come from the METLIN SMRT retention time set (Domingo-Almenara et al. 2019).

Molecules are shown by their SMILES.

A short description of the series: gradient 5% acetonitrile 3 min, to 50% in 2 min, to 85% in 15 min, held 3 min, 100 µL/min. The settings on record: column: Zorbax Extend-C18 2.1 x 50 mm; eluents: water / acetonitrile, 0.1% formic acid. The essentials:
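Each retention time is based on an adduct peak selected computationally and verified by manual inspection. Measurements used HPLC–quadrupole time-of-flight mass spectrometry in positive and negative ionization mode on mixtures of ~100 pure standards. Chromatography ran on a Zorbax Extend-C18 column (2.1 × 50 mm, 1.8 μm) at 100 μL/min with water and acetonitrile, each containing 0.1% formic acid, and dead and dwell volumes of 40 μL and 900 μL.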
As to `Cc1ccc(C2Cn3cnc(C(=O)N4CCC(C(=O)NCCC5=CCCCC5)CC4)c3CO2)cc1` (centres undefined), the RP-LC retention time is 819 s. In the case of `COCCNC(=O)N1CCCC(COC)C1` (centres undefined), the RP-LC retention time was 578 s. In turn, `COCCC(=O)Nc1ccc(-c2nc(Cn3nc(C)cc3C)c(C)o2)cc1` yielded an RP-LC retention time of 729 s. Turning to `Cc1noc([C@@H]2CN(S(=O)(=O)c3cccs3)C[C@H]2C(N)=O)n1`, the RP-LC retention time came to 658 s. The compound `O=C(NC1CCN(Cc2ccccc2)CC1)C1CCCN(C(=O)N2CCOc3ccccc32)C1` (centres undefined) displayed an RP-LC retention time of 641 s. The compound `CC(C)c1ccc(CNC(=O)c2ccc3c(c2)nc2n3CCN(C(C)C)C2=O)cc1` registered an RP-LC retention time of 823 s. The compound `Cc1nnc(-c2cc(C)n(CC(=O)Nc3ccc(Cl)cc3)c2C)o1` gave an RP-LC retention time of 820 s. As for `Cc1cc(C)cc(NC(=O)c2c(O)c3cccnc3n(-c3ccccc3)c2=O)c1`, the figure is 1430 s; as for `CC(NC(=O)CSc1nnc2c3ccccc3nc(-c3ccco3)n12)c1nc2ccccc2[nH]1` (centres undefined), 638 s.

As for `O=c1n(Cc2ccccc2Cl)nc2c(S(=O)(=O)N3CCOCC3)cccn12`, the RP-LC retention time came out at 774 s. The compound `Fc1cccc(-c2noc(-c3ccc(N4CCN(Cc5ccc6c(c5)OCO6)CC4)nc3)n2)c1` gave an RP-LC retention time of 834 s.

In turn, `CCC(=O)N1CCc2cc(N3CC(C(=O)Nc4ccc(C(C)=O)cc4)CC3=O)ccc21` (centres undefined) displayed an RP-LC retention time of 717 s. Compound `COc1cccc(NC(=O)N2CCCC2c2nc(-c3ccccc3OC)no2)c1` (centres undefined) yielded an RP-LC retention time of 843 s. In turn, `Cc1cc(Cl)cc2sc(N(Cc3ccccn3)C(=O)CN(C)S(C)(=O)=O)nc12` had an RP-LC retention time of 1080 s. Take `O=C(c1cn(-c2cc(-c3nc(C4CC4)no3)ccn2)cn1)N1CCOCC1`: the RP-LC retention time came to 708 s. In turn, `O=c1n(Cc2ccc(F)cc2Cl)nc2ccc(S(=O)(=O)N3CCCCC3)cn12` showed an RP-LC retention time of 990 s.

`COc1ccc(CN2C(=O)C3(CCOCC3)CC2c2nnnn2C(C)(C)C)c(OC)c1` (centres undefined): the RP-LC retention time was 734 s. `CCn1cnc(S(=O)(=O)N2CCC(C(=O)N3CCN(c4ccc(F)cc4)CC3)CC2)c1` displayed an RP-LC retention time of 762 s. On to `CC(C)Cc1ccc(S(=O)(=O)N(CCN2CCCCC2C)CC(=O)N2CCNCC2)cc1` (centres undefined), for which the RP-LC retention time was determined as 621 s. For `CCOc1nc2ccccc2nc1N1CCCC(C(=O)Nc2ccccc2)C1` (centres undefined), the RP-LC retention time is 1180 s. In turn, `CCOC(=O)C1CCN(C(=O)C2CCCN(c3cnc4nccnc4c3)C2)CC1` (centres undefined) returned an RP-LC retention time of 686 s. Compound `Cn1cnc(S(=O)(=O)N2CCC(C(=O)N3CCCCCC3)CC2)c1` displayed an RP-LC retention time of 638 s. Turning to `CC(C)c1ccc(NC(=O)C2CCc3nc(N4CCOCC4)ncc3C2)cc1` (centres undefined), the RP-LC retention time amounted to 888 s.

As to `CCCN(CCC)c1nc2cc(C(=O)OC)ccc2c(=O)n1-c1ccccc1`, the RP-LC retention time turned out to be 1320 s. Compound `CCc1nc(-c2csc(S(=O)(=O)N3CCCC(C(=O)Nc4ccccc4)C3)c2)no1` (centres undefined) had an RP-LC retention time of 1030 s.

Regarding `COc1ccc(C(O)Cn2ccn3nc(-c4cccs4)cc3c2=O)cc1` (centres undefined), the RP-LC retention time came out at 848 s. As for `O=C(NC1CCCC1)N1CCC(c2noc(-c3cccnc3)n2)C1` (centres undefined), the figure is 701 s.

In turn, `CC(C)n1cc(S(=O)(=O)NCc2ccccc2Cl)c2cccnc21` had an RP-LC retention time of 914 s. `O=C(NCC(=O)N1CCN(c2ccccn2)CC1)c1cc2ccccc2[nH]1` displayed an RP-LC retention time of 600 s. `COc1ccccc1CNC(=O)Cn1c(N2CCOCC2)nc(C)cc1=O` had an RP-LC retention time of 654 s. For the compound `Cc1cccc(NC(=O)C2CCCN2S(=O)(=O)c2cc3c(cc2Cl)NC(=O)CO3)c1C` (centres undefined), the RP-LC retention time was found to be 891 s. In the case of `COc1ccc(CN2C=C(C(=O)OCc3nc(-c4cccc(C)c4)no3)C(C)=NS2(=O)=O)cc1`, the RP-LC retention time came to 1170 s. For `CCCN(C)C(=O)CCC1CCN(c2cc(NCC)ncn2)CC1`, the RP-LC retention time is 571 s. The figure for `CC(C)NC(=O)N1CCC2(CC1)Nc1cc(F)ccc1-n1cccc12` is 895 s; for `COc1ccc(C2Cn3nnc(C(=O)N4CCC(C(=O)NC5CCCC5)CC4)c3CO2)cc1` (centres undefined) it is 769 s. Regarding `COc1ccccc1C(=O)N1CCN(C2=NS(=O)(=O)c3ccccc32)CC1`, the RP-LC retention time was 698 s. The compound `CCc1c(C2CCN(C(=O)c3cc(C)oc3C)CC2)noc1N` yielded an RP-LC retention time of 704 s. Compound `CN(C)CC1(O)CCC2(CCN(C(=O)CCC3CCCC3)CC2)CC1` gave an RP-LC retention time of 639 s. `Cc1ccc(-c2csc(NC(=O)C3CCC3)n2)cc1C`: the RP-LC retention time was 1100 s.

Take `Cn1c(CNC(=O)C2(Cc3ccccc3)CCCCC(=O)N2)nc2ccccc21` (centres undefined): the RP-LC retention time was 630 s.

As for `COc1cc(-c2nnc(-c3cccc(S(=O)(=O)N4CCOCC4)c3)o2)cc(OC)c1OC`, the RP-LC retention time is 852 s. Take `CC1CCN(Cc2csc(N3CCN(C(=O)COc4ccccc4)CC3)n2)CC1`: the RP-LC retention time was found to be 653 s.

The compound `COc1ccc(S(=O)(=O)N2CC(C(=O)NC3CCCCC3)Oc3cc(C)ccc32)cc1` (centres undefined) yielded an RP-LC retention time of 1170 s.

Turning to `COc1ccc(NC(=O)c2ccc3[nH]c4c(c3c2)CN(C(C)=O)CC4)c(OC)c1`, the RP-LC retention time was 690 s. Consider `O=C(NC1CC1)c1cnn2c(-c3ccccn3)ccnc12`, for which the RP-LC retention time was 687 s. The compound `CCNC(=O)N1CCCC(c2cccc(C(=O)NCc3ccc(CC)cc3)c2)C1` (centres undefined) had an RP-LC retention time of 908 s. Turning to `COc1nccnc1N1CCC(N(C)C(=O)c2ccc(C)s2)C1` (centres undefined), the RP-LC retention time was 785 s. Consider `COc1cccc(CN2CC(=O)N(Cc3ccc(F)cc3)c3ccccc3S2(=O)=O)c1`, for which the RP-LC retention time turned out to be 1100 s. Consider `Cc1cccc(Oc2cc(N3CCC(C(=O)NCCCOC(C)C)CC3)ncn2)c1C`, for which the RP-LC retention time was found to be 883 s. The compound `CC(C)CNC(=O)c1ccc(-n2cc(CNC(=O)C3CC3)cn2)cc1` returned an RP-LC retention time of 682 s.

`COc1ccc(-c2nnc(Cc3nc(-c4ccc5c(c4)OCO5)no3)o2)cc1`: the RP-LC retention time came to 916 s. `CN1C(=O)C2CCCCN2c2ccc(C(=O)N3CCN(c4ccccn4)CC3)cc21` (centres undefined) had an RP-LC retention time of 603 s.

Take `NS(=O)(=O)c1ccc(CCNC(=O)c2cccc(-n3cnnn3)c2)cc1`: the RP-LC retention time is 617 s. The compound `CCOC(=O)c1c(C)oc2ncnc(N3CCN(c4ccccn4)CC3)c12` registered an RP-LC retention time of 628 s. For `Cc1ccc(-c2noc(Cn3c(=O)n(-c4cccc(C)c4)c(=O)c4sccc43)n2)cc1`, the RP-LC retention time is 1070 s. `COc1ccc(N2CCN(c3ncc4c(n3)CCN(Cc3cccc(F)c3)C4)CC2)cc1` registered an RP-LC retention time of 648 s.

As for `CCc1cc(=O)n(CC(=O)N2CCCc3ccccc32)c(-n2nc(C)cc2C)n1`, the RP-LC retention time was determined as 993 s. The figure for `O=C(NCc1cccs1)c1cccc(N2CCNC(c3ccccc3)C2)n1` (centres undefined) is 579 s; for `CCCCc1nnc(NC(=O)C2CC(=O)N(CCc3c[nH]c4ccc(C)cc34)C2)s1` (centres undefined) it is 802 s. In turn, `COC(=O)c1ccccc1NC(=O)CCc1c(-c2ccc(Cl)cc2)nc2ccccn12` yielded an RP-LC retention time of 772 s.

Compound `CCc1ccc(NC(=O)N2CCC3(CC2)NC(=O)c2ccccc2N3C)cc1` had an RP-LC retention time of 808 s. On to `COc1ccc(NC(=O)c2cccc(N3CCNC(c4ccccc4)C3)n2)cc1` (centres undefined), for which the RP-LC retention time was determined as 665 s. Consider `O=C(C1=C2CCCN2c2ccccc2S1(=O)=O)N1CCN(c2ccc(F)cc2)CC1`, for which the RP-LC retention time amounted to 796 s. `C=C1C(=O)O[C@@H]2/C=C(\C)CCC=C(C)CC[C@@H]12`: the RP-LC retention time came to 1090 s. `COC1CN(c2cccc(F)c2)C12CCN(Cc1ccc(F)c(F)c1)CC2` (centres undefined): the RP-LC retention time amounted to 785 s.

As to `Cc1nc(NC(=O)CNC(=O)c2c[nH]c3ccccc23)sc1C(=O)N(C)C`, the RP-LC retention time was determined as 614 s. As for `Cc1ccc2ncn(C3CCN(S(=O)(=O)c4ccc(C(C)C)cc4)CC3)c(=O)c2c1`, the figure is 1050 s.

With `Cc1ccc(NC(=O)N2C[C@@H](F)C[C@H]2C(=O)N2CCc3ccccc3C2)cc1`, the RP-LC retention time was 807 s.

On to `CN(C)c1ccc(-c2nc3cnccn3c2Nc2cccc(C(N)=O)c2)cc1`, for which the RP-LC retention time came to 609 s. With `O=C(Cn1nc(N2CCOCC2)c2ccccc2c1=O)N1CCN(c2ccccc2)CC1`, the RP-LC retention time is 800 s.

In turn, `O=C(CC1CCCC1)N1CCN(c2ncccc2-c2nnc(C3CC3)o2)CC1` displayed an RP-LC retention time of 828 s. The figure for `O=C(C1CC=CCC1)N1CCCC(COCc2ccccc2)C1` (centres undefined) is 979 s; for `C=CCNS(=O)(=O)c1c(C)[nH]c(=O)[nH]c1=O` it is 582 s; for `COc1ccc(C2Cn3nnc(-c4nc(-c5ccccc5)no4)c3CO2)cc1` (centres undefined) it is 1100 s.

As to `Cn1c(CNC(=O)c2cccc(N3CCNC(c4ccccc4)C3)n2)nc2ccccc21` (centres undefined), the RP-LC retention time turned out to be 573 s.

As for `CCCCCC(=O)N1CCCC1`, the RP-LC retention time amounted to 805 s. `Cc1ccc(Nc2c(-c3ccc(N(C)C)cc3)nc3ncccn23)cc1` registered an RP-LC retention time of 742 s.

With `COc1ccc(C(CC(=O)NCCC(C)C)N2Cc3ccccc3C2=O)cc1OC` (centres undefined), the RP-LC retention time was found to be 722 s. Take `Cc1ccc(CNC(=O)C2(C)CCCN(C(=O)Nc3ccc(F)c(Cl)c3)C2)cc1` (centres undefined): the RP-LC retention time came to 1030 s.
